Where “and” joins values, the source holds several entries; their conditions need not be identical. Equal values may be shown once.
Tested on: 945468-187-T-J3-PDC spheroids with HUVEC/MSC, viability
Assay: Anticancer human tumor 945468-187-T-J3-PDC patient-derived rectal carcinoma cell line growth inhibition [PI3K]
Conditions: for viability, T/C: stronger effect = lower value; active = viability on the fitted dose curve at most 10% of control; inactive = the rest
Outline: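 Tumor cells were combined with HUVEC and MSCs into spheroids, then dosed with PI3K-inhibitor combinations over half-log ranges capped near clinical Cmax or 10 microM.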

[1] = curve of first compound, second compound 0.0316 µM
[2] = curve of first compound, second compound 0.1 µM
[3] = curve of first compound, second compound 0.316 µM
[4] = curve of first compound, second compound 1 µM
[5] = second compound 0.0316 µM, first compound 0.0316 µM
[6] = second compound 0.0316 µM, first compound 0.1 µM
[7] = second compound 0.0316 µM, first compound 0.316 µM
[8] = second compound 0.0316 µM, first compound 1 µM
[9] = second compound 0.0316 µM, first compound 3.16 µM
[10] = second compound 0.0316 µM, first compound 10 µM
[11] = second compound 0.1 µM, first compound 0.0316 µM
[12] = second compound 0.1 µM, first compound 0.1 µM
[13] = second compound 0.1 µM, first compound 0.316 µM
[14] = second compound 0.1 µM, first compound 1 µM
[15] = second compound 0.1 µM, first compound 3.16 µM
[16] = second compound 0.1 µM, first compound 10 µM
[17] = second compound 0.316 µM, first compound 0.0316 µM
[18] = second compound 0.316 µM, first compound 0.1 µM
[19] = second compound 0.316 µM, first compound 0.316 µM
[20] = second compound 0.316 µM, first compound 1 µM
[21] = second compound 0.316 µM, first compound 3.16 µM
[22] = second compound 0.316 µM, first compound 10 µM
[23] = second compound 1 µM, first compound 0.0316 µM
[24] = second compound 1 µM, first compound 0.1 µM
[25] = second compound 1 µM, first compound 0.316 µM
[26] = second compound 1 µM, first compound 1 µM
[27] = second compound 1 µM, first compound 3.16 µM
[28] = second compound 1 µM, first compound 10 µM
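Note: spheroids exposed to agents for 7 days before viability read.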
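Throughout, for viability, T/C: 100% = DMSO vehicle control viability.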

CNC(=O)c1ccc(N2C(=S)N(c3ccc(C#N)c(C(F)(F)F)c3)C(=O)C2(C)C)cc1F + CC(Nc1ncnc2nc[nH]c12)c1cc2cccc(Cl)c2c(=O)n1-c1ccccc1
inactive: viability, T/C [5] 101% | viability, T/C [6] 113% | viability, T/C [7] 98.4% | viability, T/C [8] 102% | viability, T/C [9] 98.4% | viability, T/C [10] 100% | viability, T/C [11] 99.7% | viability, T/C [12] 109% | viability, T/C [13] 94.1% | viability, T/C [14] 116% | viability, T/C [15] 103% | viability, T/C [16] 106% | viability, T/C [17] 99.5% | viability, T/C [18] 93.8% | viability, T/C [19] 100% | viability, T/C [20] 108% | viability, T/C [21] 101% | viability, T/C [22] 97.1% | viability, T/C [23] 96.5% | viability, T/C [24] 102% | viability, T/C [25] 107% | viability, T/C [26] 106% | viability, T/C [27] 105% | viability, T/C [28] 94.8% | viability, T/C (second compound 3.16 µM, first compound 0.0316 µM) 102% | viability, T/C (second compound 3.16 µM, first compound 0.1 µM) 113% | viability, T/C (second compound 3.16 µM, first compound 0.316 µM) 95% | viability, T/C (second compound 3.16 µM, first compound 1 µM) 107% | viability, T/C (second compound 3.16 µM, first compound 3.16 µM) 92.9% | viability, T/C (second compound 3.16 µM, first compound 10 µM) 110% | viability, T/C (second compound 10 µM, first compound 0.0316 µM) 99.5% | viability, T/C (second compound 10 µM, first compound 0.1 µM) 99.2% | viability, T/C (second compound 10 µM, first compound 0.316 µM) 107% | viability, T/C (second compound 10 µM, first compound 1 µM) 99.2% | viability, T/C (second compound 10 µM, first compound 3.16 µM) 105% | viability, T/C (second compound 10 µM, first compound 10 µM) 109%
> 10 µM: IC50 [1] | IC50 [2] | IC50 [3] | IC50 [4] | IC50 (curve of first compound, second compound 3.16 µM) | IC50 (curve of first compound, second compound 10 µM)

CC(Cn1ccc(-c2ccc(C#N)c(Cl)c2)n1)NC(=O)c1cc(C(C)O)[nH]n1 (stereo unspecified)
inactive: viability, T/C (compound 0.0316 µM) 89.7% [middle of 4 runs] | viability, T/C (compound 0.1 µM) 97.5% [middle of 4 runs] | viability, T/C (compound 0.316 µM) 94.9% [middle of 4 runs] | viability, T/C (compound 1 µM) 99.5% [middle of 4 runs] | viability, T/C (compound 3.16 µM) 114% [middle of 4 runs] | viability, T/C (compound 10 µM) 89.8% and 101% (2×) and 99%
> 10 µM: IC50 (curve of compound)

CNC(=O)c1ccc(N2C(=S)N(c3ccc(C#N)c(C(F)(F)F)c3)C(=O)C2(C)C)cc1F + CC(Nc1ccc2c(c1)OCCn1cc(N3C(=O)OCC3C(F)F)nc1-2)C(N)=O
> 10 µM: IC50 (curve of first compound, second compound 0.00316 µM) | IC50 (curve of first compound, second compound 0.01 µM) | IC50 [1] | IC50 [2] | IC50 [3] | IC50 [4]
inactive: viability, T/C (second compound 0.00316 µM, first compound 0.0316 µM) 92.4% | viability, T/C (second compound 0.00316 µM, first compound 0.1 µM) 108% | viability, T/C (second compound 0.00316 µM, first compound 0.316 µM) 109% | viability, T/C (second compound 0.00316 µM, first compound 1 µM) 108% | viability, T/C (second compound 0.00316 µM, first compound 3.16 µM) 132% | viability, T/C (second compound 0.00316 µM, first compound 10 µM) 103% | viability, T/C (second compound 0.01 µM, first compound 0.0316 µM) 105% | viability, T/C (second compound 0.01 µM, first compound 0.1 µM) 124% | viability, T/C (second compound 0.01 µM, first compound 0.316 µM) 115% | viability, T/C (second compound 0.01 µM, first compound 1 µM) 129% | viability, T/C (second compound 0.01 µM, first compound 3.16 µM) 111% | viability, T/C (second compound 0.01 µM, first compound 10 µM) 108% | viability, T/C [5] 110% | viability, T/C [6] 118% | viability, T/C [7] 111% | viability, T/C [8] 126% | viability, T/C [9] 109% | viability, T/C [10] 111% | viability, T/C [11] 121% | viability, T/C [12] 108% | viability, T/C [13] 125% | viability, T/C [14] 128% | viability, T/C [15] 126% | viability, T/C [16] 109% | viability, T/C [17] 124% | viability, T/C [18] 104% | viability, T/C [19] 108% | viability, T/C [20] 115% | viability, T/C [21] 121% | viability, T/C [22] 108% | viability, T/C [23] 79.8% | viability, T/C [24] 63.1% | viability, T/C [25] 72.7% | viability, T/C [26] 81.1% | viability, T/C [27] 94.5% | viability, T/C [28] 94.3%
